One test addresses human orexin receptor 2 (Homo sapiens (Human), UniProt O43614). Briefly: Orexin antagonist activity, intracellular calcium FLIPR assay, RBL-2H3 cells expressing human orexin receptor 2. Format: cell-based. The settings on record: RBL-2H3 cells stably expressing human orexin receptor 2; orexin-A at approx. 80% maximal response; compound added 15 minutes before; read-out: Human Orexin2R IC50.

Another test addresses human orexin receptor 1 (Homo sapiens (Human), UniProt O43613). Briefly: Orexin antagonist activity, intracellular calcium FLIPR assay, RBL-2H3 cells expressing human orexin receptor 1. The test is classed as cell-based. The settings on record: RBL-2H3 cells stably expressing human orexin receptor 1; orexin-A at approx. 80% maximal response; compound added 15 minutes before; read-out: Human Orexin1R IC50.

Structures are written as SMILES.

Among the data in patent US9156829B2, “Cycloalkyl and heterocycloalkyl compounds as orexin receptor antagonists” (Takeda Pharmaceutical Company Limited, priority 2014, dated 2015) are IC50 values, retold here.

Chain of human orexin receptor 2 (O43614 whole entry): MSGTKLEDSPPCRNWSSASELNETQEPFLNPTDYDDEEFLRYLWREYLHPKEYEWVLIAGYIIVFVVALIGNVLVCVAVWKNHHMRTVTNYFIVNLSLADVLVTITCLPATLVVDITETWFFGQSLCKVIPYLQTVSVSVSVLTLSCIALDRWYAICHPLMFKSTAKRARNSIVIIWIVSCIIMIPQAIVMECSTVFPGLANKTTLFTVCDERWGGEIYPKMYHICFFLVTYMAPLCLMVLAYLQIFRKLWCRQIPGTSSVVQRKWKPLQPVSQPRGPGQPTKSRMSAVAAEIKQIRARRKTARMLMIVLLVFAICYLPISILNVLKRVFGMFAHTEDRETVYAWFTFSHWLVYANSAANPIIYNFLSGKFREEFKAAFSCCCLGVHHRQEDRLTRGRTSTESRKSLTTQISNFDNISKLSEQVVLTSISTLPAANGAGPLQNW
Chain of human orexin receptor 1 (O43613 whole entry): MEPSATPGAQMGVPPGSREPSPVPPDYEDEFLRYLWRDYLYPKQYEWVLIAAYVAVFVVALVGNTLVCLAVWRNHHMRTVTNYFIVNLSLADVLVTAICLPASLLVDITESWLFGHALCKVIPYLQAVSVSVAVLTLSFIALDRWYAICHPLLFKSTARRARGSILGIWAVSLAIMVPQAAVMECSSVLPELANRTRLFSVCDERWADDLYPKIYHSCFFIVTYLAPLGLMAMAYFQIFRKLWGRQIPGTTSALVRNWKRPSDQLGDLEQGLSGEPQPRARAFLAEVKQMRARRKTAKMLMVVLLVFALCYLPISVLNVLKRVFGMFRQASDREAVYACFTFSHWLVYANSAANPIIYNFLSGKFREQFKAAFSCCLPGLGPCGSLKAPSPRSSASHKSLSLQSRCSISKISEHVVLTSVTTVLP

For `C[C@]1(Nc2cnc(C(F)(F)F)cn2)CCC[C@@H]1NC(=O)c1ncccc1C1CC1` [Example 89, 3-Cyclopropyl-N-[(1S,2S)-2-methyl-2-{[5-(trifluoromethyl)pyrazin-2-yl]amino}cyclopentyl]pyridine-2-carboxamide], the concentration for half-maximal inhibition (IC50) on human orexin receptor 2 was over 10 µM; on human orexin receptor 1, 0.14 µM.
The corresponding values for `C[C@]1(Nc2cnc(C(F)(F)F)cn2)CCC[C@@H]1NC(=O)c1ncccc1OC(F)(F)F` [Example 90, N-[(1S,2S)-2-Methyl-2-{[5-(trifluoromethyl)pyrazin-2-yl]amino}cyclopentyl]-3-(trifluoromethoxy)pyridine-2-carboxamide] are over 10 µM and 0.068 µM.
The like results for `C[C@]1(Nc2cnc(C(F)(F)F)cn2)CCC[C@@H]1NC(=O)c1ccccc1-c1ncccn1` [Example 91, N-[(1S,2S)-2-Methyl-2-{[5-(trifluoromethyl)pyrazin-2-yl]amino}cyclopentyl]-2-(pyrimidin-2-yl)benzamide] were, in that order, over 10 µM and 0.006 µM.
On to `C[C@]1(Nc2cnc(C(F)(F)F)cn2)CCC[C@@H]1NC(=O)c1cc(Cl)ccc1-n1nccn1` [Example 92, 5-Chloro-N-[(1S,2S)-2-methyl-2-{[5-(trifluoromethyl)pyrazin-2-yl]amino}cyclopentyl]-2-(2H-1,2,3-triazol-2-yl)benzamide], for which the IC50 on human orexin receptor 2 was 5.57 µM; on human orexin receptor 1, 0.008 µM.
`CC1(Nc2ncc(C(F)(F)F)cn2)CCCC1NC(=O)c1ccccc1-n1nccn1` (centres unmarked) [Example 93, N-(2-Methyl-2-{[5-(trifluoromethyl)pyrimidin-2-yl]amino}cyclopentyl)-2-(2H-1,2,3-triazol-2-yl)benzamide]: the IC50 on human orexin receptor 2 was over 10 µM; at human orexin receptor 1, 0.035 µM.
`CC1(Nc2ccc(C(F)(F)F)cn2)CCCC1NC(=O)c1ccccc1-n1nccn1` (centres unmarked) [Example 95, N-(2-Methyl-2-{[5-(trifluoromethyl)pyridin-2-yl]amino}cyclopentyl)-2-(2H-1,2,3-triazol-2-yl)benzamide]: the IC50 on human orexin receptor 2 came out at 1.07 µM; at human orexin receptor 1, 0.019 µM.
The corresponding values for `CC1(Nc2ccc(OC(F)(F)F)cn2)CCCC1NC(=O)c1ccccc1-n1nccn1` (centres unmarked) [Example 96, N-(2-Methyl-2-{[5-(trifluoromethoxy)pyridin-2-yl]amino}cyclopentyl)-2-(2H-1,2,3-triazol-2-yl)benzamide] are 1.36 µM and 0.086 µM.
For `O=C(N[C@H]1CCC[C@@H]1Nc1ccc(C(F)(F)F)cn1)c1cc(Cl)ccc1-n1nccn1` [Example 97, 5-Chloro-2-(2H-1,2,3-triazol-2-yl)-N-[(1S,2S)-2-{[5-(trifluoromethyl)pyridin-2-yl]amino}cyclopentyl]benzamide], the IC50 is over 10 µM at human orexin receptor 2 and 0.122 µM at human orexin receptor 1.
The corresponding values for `O=C(N[C@H]1CCC[C@@H]1Nc1ccc(C(F)(F)F)cn1)c1cccc(F)c1-n1nccn1` [Example 98, 3-Fluoro-2-(2H-1,2,3-triazol-2-yl)-N-[(1S,2S)-2-{[5-(trifluoromethyl)pyridin-2-yl]amino}cyclopentyl]benzamide] are over 10 µM and 0.16 µM.
`O=C(N[C@H]1CCC[C@@H]1Nc1ccc(C(F)(F)F)cn1)c1cc(F)cc(F)c1-n1nccn1` [Example 99, 3,5-Difluoro-2-(2H-1,2,3-triazol-2-yl)-N-[(1S,2S)-2-{[5-(trifluoromethyl)pyridin-2-yl]amino}cyclopentyl]benzamide]: the IC50 at human orexin receptor 2 is over 10 µM; at human orexin receptor 1, 0.153 µM.
As for `O=C(N[C@H]1CCC[C@@H]1Nc1ccc(C(F)(F)F)cn1)c1ncccc1-n1nccn1` [Example 100, 3-(2H-1,2,3-Triazol-2-yl)-N-[(1S,2S)-2-{[5-(trifluoromethyl)pyridin-2-yl]amino}cyclopentyl]pyridine-2-carboxamide], the IC50 at human orexin receptor 2 is over 10 µM; at human orexin receptor 1 it was 0.128 µM.
The like results for `O=C(N[C@H]1CCC[C@@H]1Nc1ccc(C(F)(F)F)cn1)c1ncccc1-n1cccn1` [Example 101, 3-(1H-Pyrazol-1-yl)-N-[(1S,2S)-2-{[5-(trifluoromethyl)pyridin-2-yl]amino}cyclopentyl]pyridine-2-carboxamide] were, in that order, over 10 µM and 0.31 µM.
The corresponding values for `O=C(N[C@H]1CCC[C@@H]1Nc1ccc(C(F)(F)F)cn1)c1c(F)cccc1-n1nccn1` [Example 102, 2-Fluoro-6-(2H-1,2,3-triazol-2-yl)-N-[(1S,2S)-2-{[5-(trifluoromethyl)pyridin-2-yl]amino}cyclopentyl]benzamide] are over 10 µM and 0.046 µM.
In the case of `CC1(Nc2ncc(C(F)(F)F)cc2F)CCCC1NC(=O)c1ncccc1-n1nccn1` (centres unmarked) [Example 103, N-(2-{[3-Fluoro-5-(trifluoromethyl)pyridin-2-yl]amino}-2-methylcyclopentyl)-3-(2H-1,2,3-triazol-2-yl)pyridine-2-carboxamide], the IC50 on human orexin receptor 2 turned out to be 7.9 µM; on human orexin receptor 1 it was 0.008 µM.
The like results for `O=C(N[C@H]1CCC[C@@H]1Nc1ncc(C(F)(F)F)cc1F)c1ccccc1-n1nccn1` [Example 105, N-[(1S,2S)-2-{[3-Fluoro-5-(trifluoromethyl)pyridin-2-yl]amino}cyclopentyl]-2-(2H-1,2,3-triazol-2-yl)benzamide] were, in that order, over 10 µM and 0.039 µM.
The corresponding values for `O=C(N[C@H]1CCC[C@@H]1Nc1ncc(C(F)(F)F)cc1Cl)c1ccccc1-n1nccn1` [Example 106, N-[(1S,2S)-2-{[3-Chloro-5-(trifluoromethyl)pyridin-2-yl]amino}cyclopentyl]-2-(2H-1,2,3-triazol-2-yl)benzamide] are over 10 µM and 0.029 µM.
The corresponding values for `O=C(N[C@H]1CCC[C@@H]1Nc1ncc(C(F)(F)F)cc1Br)c1ccccc1-n1nccn1` [Example 107, N-[(1S,2S)-2-{[3-Bromo-5-(trifluoromethyl)pyridin-2-yl]amino}cyclopentyl]-2-(2H-1,2,3-triazol-2-yl)benzamide] are over 10 µM and 0.027 µM.
For the molecule `Cc1cc(C(F)(F)F)cnc1N[C@H]1CCC[C@@H]1NC(=O)c1ccccc1-n1nccn1` [Example 108, N-[(1S,2S)-2-{[3-Methyl-5-(trifluoromethyl)pyridin-2-yl]amino}cyclopentyl]-2-(2H-1,2,3-triazol-2-yl)benzamide], the values for the IC50 on human orexin receptor 2 and on human orexin receptor 1 were over 10 µM and 0.024 µM, respectively.
The corresponding values for `O=C(N[C@H]1CCC[C@@H]1Nc1ncc(C(F)(F)F)nc1C1CC1)c1ccccc1-n1nccn1` [Example 109, N-[(1S,2S)-2-{[3-Cyclopropyl-5-(trifluoromethyl)pyrazin-2-yl]amino}cyclopentyl]-2-(2H-1,2,3-triazol-2-yl)benzamide] are over 10 µM and 0.021 µM.
The corresponding values for `CC(C)c1nc(C(F)(F)F)cnc1N[C@H]1CCC[C@@H]1NC(=O)c1ccccc1-n1nccn1` [Example 110, N-[(1S,2S)-2-{[3-(Propan-2-yl)-5-(trifluoromethyl)pyrazin-2-yl]amino}cyclopentyl]-2-(2H-1,2,3-triazol-2-yl)benzamide] are 3.55 µM and 0.043 µM.
Regarding `CCc1nc(C(F)(F)F)cnc1N[C@H]1CCC[C@@H]1NC(=O)c1ccccc1-n1nccn1` [Example 111, N-[(1S,2S)-2-{[3-Ethyl-5-(trifluoromethyl)pyrazin-2-yl]amino}cyclopentyl]-2-(2H-1,2,3-triazol-2-yl)benzamide], the IC50 was over 10 µM at human orexin receptor 2 and 0.034 µM on human orexin receptor 1.
As for `O=C(N[C@H]1CCC[C@@H]1Nc1cnc(C2CC2)cn1)c1ccccc1-n1nccn1` [Example 112, N-[(1S,2S)-2-[(5-Cyclopropylpyrazin-2-yl)amino]cyclopentyl]-2-(2H-1,2,3-triazol-2-yl)benzamide], the results for the IC50 at human orexin receptor 2 and at human orexin receptor 1 were over 10 µM and 0.476 µM, respectively.
The corresponding values for `CC(C)c1cnc(N[C@H]2CCC[C@@H]2NC(=O)c2ccccc2-n2nccn2)cn1` [Example 113, N-[(1S,2S)-2-{[5-(Propan-2-yl)pyrazin-2-yl]amino}cyclopentyl]-2-(2H-1,2,3-triazol-2-yl)benzamide] are over 10 µM and 0.067 µM.
In the case of `CCc1cnc(N[C@H]2CCC[C@@H]2NC(=O)c2ccccc2-n2nccn2)cn1` [Example 114, N-[(1S,2S)-2-[(5-Ethylpyrazin-2-yl)amino]cyclopentyl]-2-(2H-1,2,3-triazol-2-yl)benzamide], the values for the IC50 at human orexin receptor 2 and at human orexin receptor 1 were over 10 µM and 0.997 µM, respectively.
On to `O=C(N[C@H]1CCC[C@@H]1Nc1ccc(OC(F)(F)F)cn1)c1ccccc1-n1nccn1` [Example 115, 2-(2H-1,2,3-Triazol-2-yl)-N-[(1S,2S)-2-{[5-(trifluoromethoxy)pyridin-2-yl]amino}cyclopentyl]benzamide], for which the IC50 was over 10 µM on human orexin receptor 2 and 0.175 µM on human orexin receptor 1.
With `O=C(N[C@H]1CCC[C@@H]1Nc1ccc(Br)cn1)c1ccccc1-n1nccn1` [Example 118, N-[(1S,2S)-2-[(5-Bromopyridin-2-yl)amino]cyclopentyl]-2-(2H-1,2,3-triazol-2-yl)benzamide], the IC50 on human orexin receptor 2 was over 10 µM; at human orexin receptor 1, 0.368 µM.
The corresponding values for `COc1cc(Br)cnc1N[C@H]1CCC[C@@H]1NC(=O)c1ccccc1-n1nccn1` [Example 119, N-[(1S,2S)-2-[(5-Bromo-3-methoxypyridin-2-yl)amino]cyclopentyl]-2-(2H-1,2,3-triazol-2-yl)benzamide] are 7.8 µM and 0.022 µM.
The corresponding values for `O=C(N[C@H]1CCC[C@@H]1Nc1cc(C(F)(F)F)ccn1)c1ccccc1-n1nccn1` [Example 121, 2-(2H-1,2,3-Triazol-2-yl)-N-[(1S,2S)-2-{[4-(trifluoromethyl)pyridin-2-yl]amino}cyclopentyl]benzamide] are over 10 µM and 0.822 µM.
